Our source for the Kb and melting point values is patent US10273217B2, “Triazole derivatives” (Hoffmann-La Roche Inc., priority 2015, dated 2019).

The target in one data set is T1, human EAAT3 (Homo sapiens, UniProt P43005).
T1 construct: expressed in transfected cells
T1 sequence (P43005 1-524): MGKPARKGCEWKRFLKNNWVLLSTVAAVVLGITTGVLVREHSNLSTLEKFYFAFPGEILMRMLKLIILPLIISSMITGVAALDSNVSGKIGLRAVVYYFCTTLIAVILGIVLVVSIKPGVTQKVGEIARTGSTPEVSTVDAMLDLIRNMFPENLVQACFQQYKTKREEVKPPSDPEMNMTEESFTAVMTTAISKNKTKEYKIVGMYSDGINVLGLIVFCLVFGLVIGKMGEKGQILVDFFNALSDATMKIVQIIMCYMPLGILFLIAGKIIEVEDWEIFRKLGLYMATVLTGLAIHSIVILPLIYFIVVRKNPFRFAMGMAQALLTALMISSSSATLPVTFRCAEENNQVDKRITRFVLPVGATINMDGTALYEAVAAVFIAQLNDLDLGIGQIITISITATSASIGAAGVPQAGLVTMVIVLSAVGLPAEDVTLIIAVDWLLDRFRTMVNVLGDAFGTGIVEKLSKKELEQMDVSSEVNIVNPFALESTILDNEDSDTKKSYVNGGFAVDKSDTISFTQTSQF
The data set is described as follows: FLIPR Membrane Potential (FMP) assay, antagonist potency at human EAAT3. It counts as cell-based. Conditions: HEK-293 cells stably expressing human EAAT3; L-glutamate as agonist at EC80; Kb from IC50 by Cheng-Prusoff equation. The method, then:
The FLIPR Membrane Potential (FMP) Assay
HEK-293 cells stably expressing human EAAT3 were seeded at 55 000 cells/well in growth medium (DMEM glutamate free (Invitrogen 11960-044), 1% Pen Strep (10 ml/l GIBCO BRL N°15140-023), 10% FCS non dialysed heat inactivated, 5 mg/l puromycin) in poly-D-lysine treated 96-well black microtiter plates with clear-bottom. After 24 h, the growth medium was removed and 100 μl/well of Krebs buffer (140 mM NaCl, 4.7 mM KCl, 2.5 mM CaCl2, 1.2 mM MgCl2, 11 mM HEPES, 10 mM D-glucose, pH=7.4) added. The cells were then loaded by adding 100 μl/well FMP assay dye (FLIPR Membrane Potential assay reagent, Molecular Devices). The 96-well plates were then incubated at 37° C. for 1 h. The depolarization of the cells will cause more dye to enter in the cells, where it will bind to intracellular proteins and lipids and cause an increase in the fluorescence signal. Antagonist potency at human EAAT3 was determined by using L-glutamate as agonist at a concentration which gives 80% of the maximum response. The antagonists were applied 15 min before the application of the agonist L-glutamate. The assays were performed at room temperature and measurements done by using a Fluorometric Imaging Plate Reader (FLIPR, Molecular Devices) and filter #2. Responses were measured as peak increase in fluorescence minus basal (i.e. fluorescence without addition of L-glutamate). Kb was determined using the Cheng-Prusoff equation Kb=IC50/[1+(A/EC50)], where IC50 is the concentration of the antagonist producing 50% inhibition, A is the concentration of the agonist against which the IC50 is being determined (at EC80) and EC50 is the concentration of the agonist producing 50% […].

The structures appear in SMILES notation.

Take `CCC(C)(C)NC(=O)c1cc(-c2ccc(Cl)cc2)cc(-n2cnnc2C(C)C)c1` [Example 25, 3-(4-Chlorophenyl)-N-(2-methylbutan-2-yl)-5-(3-propan-2-yl-1,2,4-triazol-4-yl)-benzamide]: the melting point (as a rule, the temperature of the solid-liquid transition) is 103 °C. The antagonist dissociation constant (Kb) (in general, the equilibrium dissociation constant of an antagonist, usually derived from a functional assay) at human EAAT3 came out at 0.12 µM.

`CC(C)(C)NC(=O)c1cc(-c2ccc(Cl)cc2)cc(-n2cnnc2CO)c1` [Example 26, N-tert-Butyl-3-(4-chlorophenyl)-5-[3-(hydroxymethyl)-1,2,4-triazol-4-yl]-benzamide] gave a melting point of 210 °C. The molecule further came in with a Kb on human EAAT3 of 0.145 µM.

Molecule `CC(C)(C)NC(=O)c1cc(-c2ccc(Cl)cc2)cc(-n2cnnc2C(C)(C)O)c1` [Example 27, N-tert-Butyl-3-(4-chlorophenyl)-5-[3-(2-hydroxypropan-2-yl)-1,2,4-triazol-4-yl]-benzamide] had a melting point of 163 °C. In addition, the Kb on human EAAT3 was 0.064 µM.

As for `CC(C)c1nncn1-c1cc(C(=O)NC(C)(C)C)cc(-c2ccc(F)c(F)c2)c1` [Example 28, N-tert-Butyl-3-(3,4-difluorophenyl)-5-(3-propan-2-yl-1,2,4-triazol-4-yl)-benzamide], the melting point came out at 115 °C. On human EAAT3, this molecule yielded a Kb of 0.16 µM.

The molecule `COc1ccc(-c2cc(C(=O)NC(C)(C)C)cc(-n3cnnc3C(C)C)c2)cc1` [Example 29, N-tert-Butyl-3-(4-methoxyphenyl)-5-(3-propan-2-yl-1,2,4-triazol-4-yl)-benzamide] yielded a melting point of 107 °C. Further, on human EAAT3, the antagonist equilibrium constant (Kb) is 0.29 µM.

`CC(C)c1nncn1-c1cc(C(=O)NC(C)(C)C)cc(-c2ccc(Cl)c(F)c2)c1` [Example 30, N-tert-Butyl-3-(4-chloro-3-fluorophenyl)-5-(3-propan-2-yl-1,2,4-triazol-4-yl)-benzamide] returned a melting point of 135 °C. At human EAAT3, this molecule gave a Kb of 0.1 µM.

`Cc1cc(-c2cc(C(=O)NC(C)(C)C)cc(-n3cnnc3C(C)C)c2)ccc1F` [Example 31, N-tert-Butyl-3-(4-fluoro-3-methyl-phenyl)-5-(3-propan-2-yl-1,2,4-triazol-4-yl)-benzamide] had a melting point of 106 °C. Also, on human EAAT3, the Kb was 0.098 µM.

In turn, `Cc1ccc(-c2cc(C(=O)NC(C)(C)C)cc(-n3cnnc3C(C)C)c2)cc1F` [Example 32, N-tert-Butyl-3-(3-fluoro-4-methyl-phenyl)-5-(3-propan-2-yl-1,2,4-triazol-4-yl)-benzamide] yielded a melting point of 109 °C. This molecule yielded an antagonist dissociation constant (Kb) at human EAAT3 of 0.12 µM.

`Cc1ccc(-c2cc(C(=O)NC(C)(C)C)cc(-n3cnnc3C(C)C)c2)cc1` [Example 33, N-tert-Butyl-3-(4-methyl-phenyl)-5-(3-propan-2-yl-1,2,4-triazol-4-yl)-benzamide] came in with a melting point of 100 °C. Also, the Kb at human EAAT3 came to 0.1 µM.

In turn, `CC(C)c1nncn1-c1cc(C(=O)NC(C)(C)C)cc(-c2ccc(C#N)cc2)c1` [Example 34, N-tert-Butyl-3-(4-cyano-phenyl)-5-(3-propan-2-yl-1,2,4-triazol-4-yl)-benzamide] came in with a melting point of 290 °C. This molecule also had an antagonist dissociation constant (Kb) at human EAAT3 of 0.22 µM.

`CC(C)c1nncn1-c1cc(C(=O)NC(C)(C)C)cc(-c2ccc(C3CC3)cc2)c1` [Example 35, N-tert-Butyl-3-(4-cyclopropyl-phenyl)-5-(3-propan-2-yl-1,2,4-triazol-4-yl)-benzamide] had a melting point of 120 °C. Moreover, the antagonist dissociation constant (Kb) on human EAAT3 was 0.13 µM.

As to `CC(C)(NC(=O)c1cc(-c2ccc(Cl)cc2)cc(-n2cnnc2CO)c1)C1CC1` [Example 37, 3-(4-Chlorophenyl)-N-(2-cyclopropyl-propan-2-yl)-5-[3-(hydroxymethyl)-1,2,4-triazol-4-yl]-benzamide], the melting point is 120 °C. The molecule also showed an antagonist equilibrium constant (Kb) at human EAAT3 of 0.15 µM.
